Source: patent US20240124444A1 (Celgene Corporation, priority 2020, published 2024)
Like-named read-outs stand apart in the source and are kept apart here.

System: C. parvum strain UGA1
Assay: C. parvum growth inhibition assay (Nluc luminescence in HCT-8 cells)
Type: cell-based, Cryptosporidium parvum
Conditions: Cryptosporidium parvum; for inhibition at 1 µM / inhibition at 10 µM: HCT-8; for inhibition at 1 µM: read-out: % inh @ 1 uM C. parvum; for inhibition at 10 µM: read-out: % inh @ 10 uM C. parvum; for EC50: HCT-8, 48 h, C. parvum growth inhibition in HCT-8 cells, 48 hours, 6 concentrations 10-0.04 μM
[1] = single point inhibition at 1 uM
[2] = single point inhibition at 10 uM
[3] = single point inhibition @ 10 uM

SMILES | inhibition at 1 µM [1] | inhibition at 10 µM [2] | EC50 | also measured
Cc1cc(-c2cc3cnc(NC(=O)C(C)O)cc3[nH]2)ccn1 (stereo in doubt) [Example 263, (R)-2-hydroxy-N-(2-(2-methylpyridin-4-yl)-1H-pyrrolo[3,2-c]pyridin-6-yl)propanamide] | 0 to 33% | 0 to 33% |  | 
COc1nccc(-c2cc3cnc(NC(=O)c4cnn(CC5CCOC5)c4)cc3[nH]2)n1 (stereo in doubt) [Example 156, (S)-N-(2-(2-methoxypyrimidin-4-yl)-1H-pyrrolo[3,2-c]pyridin-6-yl)-1-((tetrahydrofuran-3-yl)methyl)-1H-pyrazole-4-carboxamide] |  |  |  | inhibition at 1 µM (single point inhibition @ 1 uM): 0 to 33%; inhibition at 10 µM [3]: 67 to 100%
Cc1cc(Nc2cc3[nH]c(-c4cccnc4)cc3cn2)cc(-n2cncn2)c1 [Example 337, N-(3-methyl-5-(1H-1,2,4-triazol-1-yl)phenyl)-2-(pyridin-3-yl)-1H-pyrrolo[3,2-c]pyridin-6-amine] | 0 to 33% | 0 to 33% |  | 
COc1nccc(-c2cc3cnc(NC(=O)c4cccc5c4cnn5C)cc3[nH]2)n1 [Example 220, N-(2-(2-methoxypyrimidin-4-yl)-1H-pyrrolo[3,2-c]pyridin-6-yl)-1-methyl-1H-indazole-4-carboxamide] | 0 to 33% | 33 to 66% |  | 
CC(C)CNc1cc2[nH]c(-c3cccnc3)cc2cn1 [Example 273, N-isobutyl-2-(pyridin-3-yl)-1H-pyrrolo[3,2-c]pyridin-6-amine] | 0 to 33% | 0 to 33% |  | 
Cc1cc(-c2cc3cnc(NC(=O)c4cccc5[nH]ncc45)cc3[nH]2)ccn1 [Example 289, N-(2-(2-methylpyridin-4-yl)-1H-pyrrolo[3,2-c]pyridin-6-yl)-1H-indazole-4-carboxamide] | 0 to 33% | 0 to 33% |  | 
Cc1cc(-c2cc3cnc(NC(=O)c4cnn(C5CCCC5)c4)cc3[nH]2)ccn1 [Example 84, 1-cyclopentyl-N-(2-(2-methylpyridin-4-yl)-1H-pyrrolo[3,2-c]pyridin-6-yl)-1H-pyrazole-4-carboxamide] |  |  | > 1 µM | inhibition at 1 µM (single point inhibition @ 1 uM): 67 to 100%; inhibition at 10 µM [3]: 0 to 33%
CC(C)n1c(-c2ccnc(NCC(F)(F)F)n2)cc2cnc(NC(=O)c3cnn(C)c3)cc21 [Example 338, N-(1-isopropyl-2-(2-(2,2,2-trifluoroethylamino)pyrimidin-4-yl)-1H-pyrrolo[3,2-c]pyridin-6-yl)-1-methyl-1H-pyrazole-4-carboxamide] | 0 to 33% | 0 to 33% |  | 
Cn1c(-c2cc(C(F)(F)F)ncn2)cc2cnc(NC3CCOCC3)cc21 [Example 392, 1-methyl-N-(tetrahydro-2H-pyran-4-yl)-2-(6-(trifluoromethyl)pyrimidin-4-yl)-1H-pyrrolo[3,2-c]pyridin-6-amine] |  |  | > 1 µM | 
COc1nccc(-c2cc3cnc(NC(=O)c4cnn(CC5CCOC5)c4)cc3[nH]2)n1 (stereo in doubt) [Example 184, (R)-N-(2-(2-methoxypyrimidin-4-yl)-1H-pyrrolo[3,2-c]pyridin-6-yl)-1-((tetrahydrofuran-3-yl)methyl)-1H-pyrazole-4-carboxamide] |  |  |  | inhibition at 1 µM (single point inhibition @ 1 uM): 0 to 33%; inhibition at 10 µM [3]: 67 to 100%
Cc1cc(-c2cc3cnc(NC(=O)C4CC4)cc3n2CCN(C)C)ncn1 [Example 124, N-(1-(2-(dimethylamino)ethyl)-2-(6-methylpyrimidin-4-yl)-1H-pyrrolo[3,2-c]pyridin-6-yl)cyclopropanecarboxamide] |  |  | > 1 µM | 
Cn1cc(-c2cc3cnc(NC4CCOCC4)cc3[nH]2)cn1 [Example 354, 2-(1-methyl-1H-pyrazol-4-yl)-N-(tetrahydro-2H-pyran-4-yl)-1H-pyrrolo[3,2-c]pyridin-6-amine] |  |  | > 1 µM | 
Cn1cc(C(=O)Nc2cc3[nH]c(-c4cccnc4)cc3cn2)cn1 [Example 332, 1-methyl-N-(2-(pyridin-3-yl)-1H-pyrrolo[3,2-c]pyridin-6-yl)-1H-pyrazole-4-carboxamide] | 0 to 33% | 0 to 33% |  | 
CC(C)c1cc2cnc(NC3CCOCC3)cc2[nH]1 [Example 359, 2-isopropyl-N-(tetrahydro-2H-pyran-4-yl)-1H-pyrrolo[3,2-c]pyridin-6-amine] |  |  | > 1 µM | 
CN(CC(F)(F)F)c1cc(-c2cc3cnc(NC4CCOCC4)cc3[nH]2)ncn1 [Example 44, 2-(6-(Methyl(2,2,2-trifluoroethyl)amino)pyrimidin-4-yl)-N-(tetrahydro-2H-pyran-4-yl)-1H-pyrrolo[3,2-c]pyridin-6-amine] |  |  |  | inhibition at 1 µM (single point inhibition @ 1 uM): 0 to 33%; inhibition at 10 µM [3]: 67 to 100%
Cn1cc(C(=O)Nc2cc3[nH]c(-c4ccc(F)cn4)cc3cn2)cn1 [Example 334, N-(2-(5-fluoropyridin-2-yl)-1H-pyrrolo[3,2-c]pyridin-6-yl)-1-methyl-1H-pyrazole-4-carboxamide] | 0 to 33% | 0 to 33% |  | 
Cn1c(-c2cc(C(F)(F)F)ncn2)cc2cnc(NC(=O)C3CC3)cc21 [Example 130, N-(1-methyl-2-(6-(trifluoromethyl)pyrimidin-4-yl)-1H-pyrrolo[3,2-c]pyridin-6-yl)cyclopropanecarboxamide] |  |  | > 1 µM | 

SMILES | inhibition at 1 µM [1] | inhibition at 10 µM [2] | EC50 | also measured
CC(C)Nc1cc2c(cn1)cc(-c1ccnc(NCC(F)(F)F)n1)n2C [Example 383, N-isopropyl-1-methyl-2-(2-(2,2,2-trifluoroethylamino)pyrimidin-4-yl)-1H-pyrrolo[3,2-c]pyridin-6-amine] |  |  | > 1 µM | 
CO[C@H]1CC[C@H](Nc2cc3[nH]c(-c4cccnc4)cc3cn2)CC1 [Example 274, N-((1r,4r)-4-methoxycyclohexyl)-2-(pyridin-3-yl)-1H-pyrrolo[3,2-c]pyridin-6-amine] | 0 to 33% | 0 to 33% |  | 
Cc1cccc(-c2cc3cnc(NC4CCOCC4)cc3[nH]2)c1 [Example 352, N-(tetrahydro-2H-pyran-4-yl)-2-m-tolyl-1H-pyrrolo[3,2-c]pyridin-6-amine] |  |  | > 1 µM | 
O=C(Nc1cc2[nH]c(-c3ccc(F)cn3)cc2cn1)C1CC1 [Example 268, N-(2-(5-fluoropyridin-2-yl)-1H-pyrrolo[3,2-c]pyridin-6-yl)cyclopropanecarboxamide] | 0 to 33% | 0 to 33% |  | 
Cc1cc(-c2cc3cnc(N)cc3[nH]2)ccn1 [Example 81, 2-(2-methylpyridin-4-yl)-1H-pyrrolo[3,2-c]pyridin-6-amine] |  |  | > 1 µM | inhibition at 1 µM (single point inhibition @ 1 uM): 0 to 33%; inhibition at 10 µM [3]: 33 to 66%
O=C(Nc1cc2[nH]c(-c3ccnc(OCCF)n3)cc2cn1)c1cnn(C2CCOCC2)c1 [Example 225, N-(2-(2-(2-fluoroethoxy)pyrimidin-4-yl)-1H-pyrrolo[3,2-c]pyridin-6-yl)-1-(tetrahydro-2H-pyran-4-yl)-1H-pyrazole-4-carboxamide] | 0 to 33% | 33 to 66% |  | 
Cc1cc(-c2cc3cnc(NC(=O)C4CC4)cc3n2CCN(C)C)ccn1 [Example 333, N-(1-(2-(dimethylamino)ethyl)-2-(2-methylpyridin-4-yl)-1H-pyrrolo[3,2-c]pyridin-6-yl)cyclopropanecarboxamide] | 0 to 33% | 0 to 33% |  | 
Cc1cc(-c2cc3cnc(NC4CCN(C)CC4)cc3[nH]2)ccn1 [Example 112, N-(1-methylpiperidin-4-yl)-2-(2-methylpyridin-4-yl)-1H-pyrrolo[3,2-c]pyridin-6-amine] |  |  | > 1 µM | 
Cn1cc(C(=O)Nc2cc3[nH]c(-c4cnn(C)c4)cc3cn2)cn1 [Example 331, 1-methyl-N-(2-(1-methyl-1H-pyrazol-4-yl)-1H-pyrrolo[3,2-c]pyridin-6-yl)-1H-pyrazole-4-carboxamide] | 0 to 33% | 0 to 33% |  | 
Cn1cc(Nc2cc3[nH]c(C#N)cc3cn2)cn1 [Example 164, 6-(1-methyl-1H-pyrazol-4-ylamino)-1H-pyrrolo[3,2-c]pyridine-2-carbonitrile] |  |  |  | inhibition at 1 µM (single point inhibition @ 1 uM): 0 to 33%; inhibition at 10 µM [3]: 67 to 100%
Cc1cc(-c2cc3cnc(NCC4CC4)cc3[nH]2)ccn1 [Example 67, N-(cyclopropylmethyl)-2-(2-methylpyridin-4-yl)-1H-pyrrolo[3,2-c]pyridin-6-amine] |  |  | > 1 µM | 
Cc1cc(-c2cc3cnc(NC(=N)C4CC4)cc3[nH]2)ccn1 [Example 96, N-(2-(2-methylpyridin-4-yl)-1H-pyrrolo[3,2-c]pyridin-6-yl)cyclopropanecarboximidamide] |  |  | > 1 µM | 
O=C(Nc1cc2[nH]c(-c3nc(C(F)(F)F)cs3)cc2cn1)C1CC1 [Example 104, N-(2-(4-(trifluoromethyl)thiazol-2-yl)-1H-pyrrolo[3,2-c]pyridin-6-yl)cyclopropanecarboxamide] |  |  | > 1 µM | 
Cc1cc(Nc2cc3[nH]c(-c4ccncc4)cc3cn2)nn1C(C)C [Example 168, N-(1-isopropyl-5-methyl-1H-pyrazol-3-yl)-2-(pyridin-4-yl)-1H-pyrrolo[3,2-c]pyridin-6-amine] |  |  |  | inhibition at 1 µM (single point inhibition @ 1 uM): 33 to 66%; inhibition at 10 µM [3]: 67 to 100%
Cc1cc(-c2cc3cnc(NC(=O)C4CC4)cc3n2CCO)ncn1 [Example 55, N-(1-(2-hydroxyethyl)-2-(6-methylpyrimidin-4-yl)-1H-pyrrolo[3,2-c]pyridin-6-yl)cyclopropanecarboxamide] |  |  | > 1 µM | 
CC(C)n1cc(C(=O)Nc2cc3c(cn2)cc(-c2ccnc(NCCC(F)(F)F)n2)n3C)cn1 [Example 178, 1-isopropyl-N-(1-methyl-2-(2-(3,3,3-trifluoropropylamino)pyrimidin-4-yl)-1H-pyrrolo[3,2-c]pyridin-6-yl)-1H-pyrazole-4-carboxamide] |  |  |  | inhibition at 1 µM (single point inhibition @ 1 uM): 0 to 33%; inhibition at 10 µM [3]: 67 to 100%
N#Cc1cc(-c2cc3cnc(Nc4cccc(C5CCOCC5)c4)cc3[nH]2)ccn1 [Example 54, 4-(6-(3-(tetrahydro-2H-pyran-4-yl)phenylamino)-1H-pyrrolo[3,2-c]pyridin-2-yl)picolinonitrile] |  |  | > 1 µM | inhibition at 1 µM (single point inhibition @ 1 uM): 0 to 33%; inhibition at 10 µM [3]: 67 to 100%
